{"source": "paper PMC8184532", "about": "(European Journal of Clinical Pharmacology, 2021)", "origin": "cited, not measured here", "key": {"[1]": {"settings": "coadministered with ritonavir; Stader et al."}}, "note": "Like-named read-outs stand apart in the source and are kept apart here."}
{"smiles": "CCOC(=O)C1=C(COCCN)NC(C)=C(C(=O)OC)C1c1ccccc1Cl", "note": "(stereo not shown) [amlodipine]", "values": [{"measurement": "increase in amlodipine exposure", "setting": "coadministered with antiviral agents for chronic hepatitis C or ritonavir-boosted indinavir, non-compartmental analyses", "result": 2, "unit": "fold"}, {"measurement": "increase in amlodipine exposure", "setting": "coadministered with ritonavir-boosted indinavir, healthy volunteers", "result": 90, "unit": "%"}, {"measurement": "increase in amlodipine exposure", "setting": "in the presence of diltiazem, a CYP3A4 inhibitor, summary of product characteristics", "result": 60, "unit": "%"}, {"measurement": "increase in amlodipine exposure", "setting": "[1]", "result": 90, "unit": "%"}]}
